What all share (format): functional, organism-based
Common to all, as to conditions: Hippocampus

The species entered for assay [1] is Rattus norvegicus. Kind of assay: Effect on the uptake amount of [3H]choline in the hippocampal synaptosomes of AF64A-treated rats at 10e-7 M.
The species entered for assay [2] is Rattus norvegicus. Kind of assay: Effect on the uptake amount of [3H]choline in the hippocampal synaptosomes of AF64A-treated rats at 10e-5 M.
Assay [3] is filed under the species Rattus norvegicus. Kind of assay: Effect on the uptake amount of [3H]choline in the hippocampal synaptosomes of AF64A-treated rats at 10e-6 M.

Molecules are shown by their SMILES.

As to `CCCC(=O)Nc1c2c(nc3cccc(C)c13)CCCC2`, the values for the HACU improvement in the assay listed under Rattus norvegicus [1], in the assay listed under Rattus norvegicus [2] and in the assay listed under Rattus norvegicus [3] were -2%, 10% and -4%, respectively.

For `CCCC(=O)Nc1c2c(nc3ccccc13)C1CCC2CC1`, the HACU improvement was 5% in the assay filed under Rattus norvegicus [1], -3% in the assay listed under Rattus norvegicus [2] and -6% in the assay filed under Rattus norvegicus [3].

Take `CCCC(=O)Nc1c2c(nc3oc(C)nc13)CCCC2`: the HACU improvement amounted to 4% in the assay listed under Rattus norvegicus [1], 18% in the assay filed under Rattus norvegicus [2] and 2% in the assay listed under Rattus norvegicus [3].

On to `CCCC(=O)Nc1c2c(nc3ccccc13)CCCC2`, for which the HACU improvement in the assay listed under Rattus norvegicus [1] was 13%; in the assay filed under Rattus norvegicus [2], 28%; in the assay filed under Rattus norvegicus [3] it was 24%.

Take `CCCC(=O)Nc1c2c(nc3ccccc13)C(C)CCC2` (stereo not drawn): the figures for the HACU improvement in the assay listed under Rattus norvegicus [1], in the assay filed under Rattus norvegicus [2] and in the assay filed under Rattus norvegicus [3] were 10%, 16% and 17%, respectively.

In the case of `CCCC(=O)Nc1c2c(nc3ccccc13)CCC(=O)C2`, the HACU improvement in the assay listed under Rattus norvegicus [1], in the assay filed under Rattus norvegicus [2] and in the assay listed under Rattus norvegicus [3] was 14% each time.

Consider `CCCC(=O)Nc1c2c(nc3cc(F)ccc13)CCCC2`, for which the HACU improvement in the assay filed under Rattus norvegicus [1] is -1%; in the assay filed under Rattus norvegicus [2] it was -15%; in the assay listed under Rattus norvegicus [3] it was 3%.

In the case of `CCCC(=O)Nc1c2c(nc3sc(C)c(C)c13)CCCC2`, the HACU improvement amounted to 4% in the assay listed under Rattus norvegicus [1], 20% in the assay listed under Rattus norvegicus [2] and 11% in the assay filed under Rattus norvegicus [3].

Take `O=C(CN1CCCC1=O)Nc1c2c(nc3ccccc13)CCCC2`: the HACU improvement in the assay filed under Rattus norvegicus [1] is 15%; in the assay filed under Rattus norvegicus [2] it was 14%; in the assay listed under Rattus norvegicus [3] it was 17%.

Regarding `CCCC(=O)Nc1c2c(nc3scc(C)c13)CCCC2`, the HACU improvement in the assay listed under Rattus norvegicus [1] amounted to 7%; in the assay listed under Rattus norvegicus [2], 1%; in the assay listed under Rattus norvegicus [3], 3%.

In the case of `CCCC(=O)Nc1c2c(nc3ncccc13)CCCC2`, the HACU improvement in the assay listed under Rattus norvegicus [1] was 15%; in the assay filed under Rattus norvegicus [2] it was 13%; in the assay listed under Rattus norvegicus [3] it was 10%.

Turning to `CCCC(=O)Nc1c2c(nc3ccccc13)CCC(C)C2` (stereo not drawn), the results for the HACU improvement in the assay listed under Rattus norvegicus [1], in the assay listed under Rattus norvegicus [2] and in the assay filed under Rattus norvegicus [3] were -6%, 6% and -16%, respectively.

As for `CCCC(=O)Nc1c2c(nc3ccccc13)CCN(C(=O)c1ccccc1)C2`, the HACU improvement in the assay listed under Rattus norvegicus [1] is 7%; in the assay listed under Rattus norvegicus [2], -7%; in the assay listed under Rattus norvegicus [3], 0%.

In the case of `CCCC(=O)Nc1c2c(nc3sccc13)CCCC2`, the results for the HACU improvement in the assay listed under Rattus norvegicus [1], in the assay filed under Rattus norvegicus [2] and in the assay filed under Rattus norvegicus [3] were 1%, 12% and 1%, respectively.

In the case of `CCCC(=O)Nc1c2c(nc3ccc(F)cc13)CCCC2`, the HACU improvement in the assay filed under Rattus norvegicus [1] was 2%; in the assay filed under Rattus norvegicus [2], 7%; in the assay filed under Rattus norvegicus [3] it was -5%.

For the compound `Cc1oc2nc3c(c(NC(=O)CN4CC(=O)NC4=O)c2c1C)CCCC3`, the HACU improvement in the assay listed under Rattus norvegicus [1] is 5%; in the assay listed under Rattus norvegicus [2] it was 16%; in the assay listed under Rattus norvegicus [3], 12%.

Consider `CCCC(=O)Nc1c2c(nc3ccccc13)C1CCN2CC1`, for which the values for the HACU improvement in the assay filed under Rattus norvegicus [1], in the assay filed under Rattus norvegicus [2] and in the assay listed under Rattus norvegicus [3] were 7%, 10% and 7%, respectively.

On to `Cc1oc2nc3c(c(NC(=O)Cn4ccnc4)c2c1C)CCCC3`, for which the HACU improvement in the assay listed under Rattus norvegicus [1] was found to be 5%; in the assay listed under Rattus norvegicus [2], 3%; in the assay listed under Rattus norvegicus [3], 4%.

Consider `CCCC(=O)Nc1c2c(nc3ccccc13)CCC(O)C2` (stereo not drawn), for which the HACU improvement in the assay listed under Rattus norvegicus [1] came to 13%; in the assay listed under Rattus norvegicus [2], 10%; in the assay filed under Rattus norvegicus [3], 16%.

For the compound `CCCC(=O)Nc1c2c(nc3ccccc13)CCN(Cc1ccccc1)C2`, the figures for the HACU improvement in the assay filed under Rattus norvegicus [1], in the assay listed under Rattus norvegicus [2] and in the assay listed under Rattus norvegicus [3] were 10%, 21% and 11%, respectively.

Regarding `CCCC(=O)Nc1c2c(nc3ccccc13)CCC(c1ccccc1)C2` (stereo not drawn), the HACU improvement in the assay filed under Rattus norvegicus [1] was -1%; in the assay listed under Rattus norvegicus [2], -6%; in the assay filed under Rattus norvegicus [3], -7%.

For `CCCC(=O)Nc1c2c(nc3ccccc13)CCC(C)(C)C2`, the HACU improvement was -11% in the assay listed under Rattus norvegicus [1], 1% in the assay filed under Rattus norvegicus [2] and 3% in the assay filed under Rattus norvegicus [3].

In the case of `CCCC(=O)Nc1c2c(nc3ccccc13)CCN(S(=O)(=O)c1ccccc1)C2`, the figures for the HACU improvement in the assay filed under Rattus norvegicus [1], in the assay filed under Rattus norvegicus [2] and in the assay filed under Rattus norvegicus [3] were 26%, 5% and 10%, respectively.

With `CCCC(=O)Nc1c2c(nc3ccsc13)CCCC2`, the HACU improvement in the assay listed under Rattus norvegicus [1] is 7%; in the assay filed under Rattus norvegicus [2] it was 15%; in the assay listed under Rattus norvegicus [3] it was 4%.

As to `CCCC(=O)Nc1c2c(nc3ccccc13)CCC1(CC1)C2`, the HACU improvement came to 3% in the assay filed under Rattus norvegicus [1], 12% in the assay listed under Rattus norvegicus [2] and 19% in the assay filed under Rattus norvegicus [3].

Consider `CCCC(=O)Nc1c2c(nc3cccc(F)c13)CCCC2`, for which the figures for the HACU improvement in the assay filed under Rattus norvegicus [1], in the assay listed under Rattus norvegicus [2] and in the assay listed under Rattus norvegicus [3] were 9%, 3% and 2%, respectively.

For `CNCC(=O)Nc1c2c(nc3oc(C)c(C)c13)CCCC2`, the HACU improvement in the assay listed under Rattus norvegicus [1] was found to be 14%; in the assay listed under Rattus norvegicus [2], 3%; in the assay filed under Rattus norvegicus [3], 10%.

Take `CCCC(=O)Nc1c2c(nc3ccccc13)C=CCC2`: the values for the HACU improvement in the assay listed under Rattus norvegicus [1], in the assay filed under Rattus norvegicus [2] and in the assay listed under Rattus norvegicus [3] were 14%, -7% and 8%, respectively.

On to `CCCC(=O)Nc1c2c(nc3oc(C)c(C)c13)CCCC2`, for which the HACU improvement is 13% in the assay filed under Rattus norvegicus [1], 38% in the assay listed under Rattus norvegicus [2] and 20% in the assay listed under Rattus norvegicus [3].

For `CCCC(=O)Nc1c2c(nc3ccccc13)CCN(C)C2`, the HACU improvement in the assay listed under Rattus norvegicus [1] is 13%; in the assay filed under Rattus norvegicus [2], 19%; in the assay listed under Rattus norvegicus [3] it was 9%.

As for `Cc1oc2nc3c(c(NC(=O)CN4CCCC4=O)c2c1C)CCCC3`, the results for the HACU improvement in the assay listed under Rattus norvegicus [1], in the assay listed under Rattus norvegicus [2] and in the assay filed under Rattus norvegicus [3] were 55%, 64% and 72%, respectively.
